Reference: US20240342136A1, “Glutamate receptor agonists for suppression of mast cell function” (University of Pittsburgh - Of the Commonwealth System of …, priority 2023, published 2024)
“Also recorded” adds a separate entry of the source.

What was measured:
[1] = test system: murine peritoneal mast cells; experiment: Mast cell degranulation by flow cytometry (surface Lamp1 and avidin binding) after compound 48/80; assay type: cell-based; conditions: for degranulation of PCMC in response to MrgprB2: in vitro, dose-dependent manner; for mast cell degranulation (mast cell activation): 48 hours incubation, compound 48/80 20 ug/ml 20 minutes, FIG. 1B
Experimental: Primary mast cell cultures derived from murine peritoneal mast cells were incubated for 48 hours with kainic acid (0.1, 1.0, 10 and 100 uM), glutamate (6 mM) or vehicle control. Cultures were then exposed to the synthetic MrgprB2 ligand, compound 48/80, at 20 ug/ml for 20 minutes. The extent of mast cell degranulation was determined based on surface expression of Lamp1 protein and avidin binding using flow cytometry gated on CD117+ FcεR+ mast cells. Representative flow plots from unstimulated cells (control) and cells stimulated with compound 48/80 are shown (FIG. 1A). […] A similar set of experiments were performed using mast cells incubated with the selective GluK2 agonist, SYM2081 at 1600 nM concentration (FIGS. 1C and 1D). […] Each symbol represents data from a single well of mast cells.

irritant dermatitis = experiment: Croton oil-induced irritant dermatitis, ear swelling; assay type: in vivo, C57BL/6 mice; conditions: intradermal SYM2081 for 2 days; 0.5% croton oil on 1 ear; FIG. 2D
Experimental: (§1) Cohorts of 7-9-week-old female C57BL/6 mice were given 20 ul intradermal flank injections of 1600 nM SYM2081 or control PBS twice a day for 2 days. Evans Blue dye was introduced by intravenous injection to allow for quantification of edema followed by intradermal injection of control PBS or compound 48/80 (20 ul 10 ug/ml). The amount of Evans blue dye released into the skin which quantifies edema and is an indirect measure of mast cell degranulation was measured 20 minutes later (FIG. 2A). […] The percentage of degranulated mast cells was also quantified by direct microscopic visualization of skin samples stained with toluidine blue (FIG. 2B). Whole human skin explants were cultured in control PBS or 1600 nM SYM2081 for 48 hours. Sample were exposed to compound 48/80 (240 ug/ml) for 20 minutes followed by direct microscopic visualization of skin samples stained with toluidine blue (FIG. 2C). […] Finally, C57BL/6 mice were treated with intradermal injection of control PBS or SYM2081 for 2 days as above. Mice were then challenged by application of 0.5% croton oil, an irritant, on 1 ear and the degree of ear swelling which is reflective of the extent of irritant dermatitis was measured (FIG. 2D). […] Each symbol represents data from an individual animal.

[2] = test system: mast cells in whole human skin explants; experiment: Whole human skin explants, degranulated mast cells by toluidine blue after compound 48/80; assay type: cell-based; conditions: 1600 nM for 48 hours; compound 48/80 240 ug/ml 20 minutes; FIG. 2C
Experimental: as §1

[3] = test system: murine peritoneal mast cells; experiment: β-hexosaminidase release from mast cells; assay type: cell-based; conditions: preincubated with SYM2081 at 100 nM and 1600 nM; FIG. 1F
contact hypersensitivity = experiment: DNFB contact hypersensitivity, ear thickness; assay type: in vivo, mice; conditions: topical SYM2081 on shaved abdomen twice daily for 2 days; 0.5% DNFB sensitization, 0.25% DNFB challenge; 7 days; FIG. 3B
dermal mast cells = experiment: Evans Blue dye edema after intradermal compound 48/80 in mice; assay type: in vivo, C57BL/6 mice; conditions: compound 48/80 challenge, 20 minutes
Experimental: Cohorts of 7-9-week-old female C57BL/6 mice were given 20 ul intradermal flank injections of 1600 nM SYM2081 or control PBS twice a day for 2 days. Evans Blue dye was introduced by intravenous injection to allow for quantification of edema followed by intradermal injection of control PBS or compound 48/80 (20 ul 10 ug/ml). The amount of Evans blue dye released into the skin which quantifies edema and is an indirect measure of mast cell degranulation was measured 20 minutes later (FIG. 2A). […] The percentage of degranulated mast cells was also quantified by direct microscopic visualization of skin samples stained with toluidine blue (FIG. 2B). […] Mice were then challenged by application of 0.5% croton oil, an irritant, on 1 ear and the degree of ear swelling which is reflective of the extent of irritant dermatitis was measured (FIG. 2D). […]
Cohorts of 7-9-week-old female C57BL/6 mice were treated with 5.0% SYM2081 formulated into a light base or vehicle alone on the flank twice daily for 2 days. Evans Blue dye was introduced by intravenous injection to allow for quantification of edema followed by intradermal injection of control PBS or compound 48/80 (20 ul 10 ug/ml). The amount of Evans blue dye released into the skin which quantifies edema and is an indirect measure of mast cell degranulation was measured 20 minutes later (FIG. 3A). […]

SMILES | degranulation of PCMC in response to MrgprB2 [1] | mast cell degranulation (mast cell activation) ([1]; kainic acid 0.1, 1.0, 10 and 100 uM) | mast cell degranulation (mast cell activation) ([1]; glutamate 6 mM) | effective concentration (suppression of mast cells) ([1]; FIG. 1E) | IC50 ([1]; Mus musculus, Mast cell, read-out: IC50 of suppression of mast cells (degranulation)) | ear swelling (irritant dermatitis) (irritant dermatitis) | percentage of degranulated mast cells [2] | release of β-hexosaminidase [3] | increased ear thickness (inflammation) in response to DNFB (contact hypersensitivity) | edema (Evans blue dye released into the skin), indirect measure of mast cell degranulation (dermal mast cells; 20 ul intradermal 1600 nM SYM2081 twice a day for 2 days, FIG. 2A) | edema (Evans blue dye released into the skin), indirect measure of mast cell degranulation (dermal mast cells; topical 5.0% SYM2081 in a light base on flank twice daily for 2 days, FIG. 3A)
C=C(C)[C@H]1CN[C@H](C(=O)O)[C@H]1CC(=O)O [kainic acid] | suppressed | suppress mast cell activation | – | – | – | – | – | – | – | – | –
N[C@@H](CCC(=O)O)C(=O)O [glutamate] | suppressed | – | suppress mast cell activation | – | – | – | – | – | – | – | –
C[C@H](C[C@H](N)C(=O)O)C(=O)O [SYM2081, (2S,4R)-4-methylglutamic acid] | suppressed | – | – | at least 0.1 nM | 2.27 nM | attenuated; also recorded: reduced ear swelling | reduced percentage of degranulated mast cells | decreased | reduced inflammation | effective to reduce mast cell degranulation; also recorded: suppressed; also recorded: significant reduction in edema | effective to reduce mast cell degranulation; also recorded: significant reduction in edema
